Data from patent publication US10526332B2, “Imidazo-pyrimidone compounds, and preparation method and application thereof” (Nanjing Gator Meditech Company, Ltd., priority 2015, dated 2020).

Assays:
[1] = tested on: HCT116; experiment: MTS cell proliferation test, HCT116; settings: Homo sapiens, HCT-116, 72 h, read-out: HCT116 IC50 (Mean ± SD);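 note: absorbance at 490 nm after MTS/PMS addition, survival relative to untreated cells (100%) after blank subtraction, IC50 from the concentration–survival curve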
Method: (§1) The disclosed compounds and their pharmaceutically accepted salts are assayed for their anti-cancer activities by the following method. • MTS Cell Proliferation Test 1. Materials 1.1. […] Cell Lines
(§2) Two cell lines were used, both HCT116 and MDA-MB-231 were purchased from USATCC.
(§3) MTS reagent powder was purchased from Promega. Cat #G1111; PMS from Sigma, Cat #P8625; cell culture medium RPMI-1640, Cat #10040562R; DMEM, Cat #0013CVR; 100× sodium pyruvate solution Cat #136007; 100× Penicillin Streptomycin Solution, Cat ⊇15140122; 100× Penicillin Streptomycin Solution, Cat #15140122; 0.25% Trypsin (Parenzyme), Cat #25200-072; and fetal bovine serum, Cat #16000-044 were all purchased from Life Technologies.
(§4) • Thermo incubator (Format 371); • Heat force Biosafety Cabinet (HF sage 1500); • BioTek Microplate Reader (Synergy 2). 2. […] 2.3 Procedure of MTS Methods:
(§5) Cells at logarithmic phase were harvested, then digested with 0.25% trypsin, and re-suspense in complete growth medium. 150 uL/well of HCT-116 and MDA-MB-231 were dispensed into 96 well culture plates with 2.5×10^3 cell/well. The plates were pre-incubated in a humidified CO2 incubator at 37° C., 5% CO2) for 24 hours. 50 uL of various concentration of test compounds and reference compound were added. A negative control (only cells and culture medium without compound) and blank control (only culture medium without cells) were set at the same time. The plates were incubated for 72 hr in the incubator. The MTS/PMS solution was prepared and added into 96 well plates according to the test instruction by Promega Corporation. The plates were incubated again for some time, then the absorbance at 490 nm were measured using Biotek Instruments, Inc microplate reader and the cell survival rates calculated. Cell Survival Rate(%)=(At−Ab)/(Ac−Ab)×100% where, • At=Absorbance value of test compound • Ab=Absorbance value of blank • Ac=Absorbance value of control 3. Results

[2] = tested on: MDA-MB-231; experiment: MTS cell proliferation test, MDA-MB-231; settings: Homo sapiens, MDA-MB-231, 72 h, read-out: MDA231 IC50 (Mean ± SD);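 note: cells settled 24 h before compound addition, MTS absorbance at 490 nm, survival as percent of untreated cells after blank subtraction, IC50 fitted from survival versus concentration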
Method: as §1, §2, §3, §4, §5

| SMILES | IC50 [1] [nM] | IC50 [2] [nM] |
| --- | --- | --- |
| O=C1C2=C(CCN(Cc3cccc(F)c3)C2)N2CCN=C2N1Cc1ccccc1Br [Compound I-52, 4-(2-bromobenzyl)-7-(3-fluorobenzyl)-1,2,6,7,8,9-hexahydroimidazo[1,2-a]pyrido[3,4-e]pyrimidin-5(4H)-one] | 1180 ± 155 | 2070 ± 115 |
| O=C1C2=C(CCN(Cc3cccc(Br)c3)C2)N2CCN=C2N1Cc1ccccc1F [Compound I-53, 7-(3-bromobenzyl)-4-(2-fluorobenzyl)-1,2,6,7,8,9-hexahydroimidazo[1,2-a]pyrido[3,4-e]pyrimidin-5(4H)-one] | 700 ± 1 | 730 ± 2 |
| O=C1C2=C(CCN(Cc3cccc(Br)c3)C2)N2CCN=C2N1Cc1ccccc1C(F)(F)F [Compound I-54, 7-(3-bromobenzyl)-4-(2-(trifluoromethyl)benzyl)-1,2,6,7,8,9-hexahydroimidazo[1,2-a]pyrido[3,4-e]pyrimidin-5(4H)-one] | 21410 ± 34 | 24800 ± 2580 |
| O=C1C2=C(CN(Cc3ccccc3)C2)N2CCN=C2N1Cc1ccccc1Br [Compound I-55, 2-Benzyl-5-(2-bromobenzyl)-2,3,7,8-tetrahydro-1H-imidazo[1,2-a]pyrrolo[3,4-e]pyrimidin-4(5H)-one] | 2140 ± 1 | 2190 ± 39 |
| O=C1C2=C(CN(Cc3ccccc3)C2)N2CCN=C2N1Cc1ccc(Cl)cc1Cl [Compound I-56, 2-benzyl-5-(2,4-dichlorobenzyl)-2,3,7,8-tetrahydro-1H-imidazo[1,2-a]pyrrolo[3,4-e]pyrimidin-4(5H)-one] | 2050 ± 30 | 2050 ± 40 |
| O=C1C2=C(CN(Cc3ccccc3)C2)N2CCN=C2N1Cc1ccc(Cl)c(C(F)(F)F)c1 [Compound I-57, 2-benzyl-5-(4-chloro-3-(trifluoromethyl)benzyl)-2,3,7,8-tetrahydro-1H-imidazo[1,2-a]pyrrolo[3,4-e]pyrimidin-4(5H)-one] | 2080 ± 10 | 2100 ± 70 |
| Cc1ccccc1CN1C(=O)C2=C(CCN(Cc3ccccc3)C2)N2CCN=C12 [TIC10, 7-benzyl-4-(2-methylbenzyl)-1,2,6,7,8,9-hexahydroimidazo[1,2-a]pyrido[3,4-e]pyrimidin-5(4H)-one, reference compound] | 1060 ± 240 | 790 ± 80 |
